{"source": "patent US20240158446A1", "about": "“CYCLIC COMPOUND HAVING SELECTIVE INHIBITORY ACTION ON KRAS OVER HRAS AND NRAS” (CHUGAI SEIYAKU KABUSHIKI KAISHA, priority 2021, published 2024)", "key": {"[1]": {"molecular_target": "GDP-bound NRAS wild-type protein (Homo sapiens, UniProt P01111)", "sequence (P01111 whole entry)": "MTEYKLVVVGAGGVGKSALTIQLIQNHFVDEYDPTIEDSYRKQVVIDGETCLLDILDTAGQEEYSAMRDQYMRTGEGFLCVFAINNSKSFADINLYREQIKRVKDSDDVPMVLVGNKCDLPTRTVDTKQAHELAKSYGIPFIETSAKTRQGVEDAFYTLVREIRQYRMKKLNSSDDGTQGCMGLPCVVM", "experiment": "Binding to NRAS by surface plasmon resonance (SPR), Single Cycle Kinetics", "conditions": "SPR, GDP-bound NRAS wild-type protein vs GDP-bound KRAS wild-type protein"}, "[2]": {"molecular_target": "GDP-bound HRAS wild-type protein (Homo sapiens, UniProt P01112)", "sequence (P01112 whole entry)": "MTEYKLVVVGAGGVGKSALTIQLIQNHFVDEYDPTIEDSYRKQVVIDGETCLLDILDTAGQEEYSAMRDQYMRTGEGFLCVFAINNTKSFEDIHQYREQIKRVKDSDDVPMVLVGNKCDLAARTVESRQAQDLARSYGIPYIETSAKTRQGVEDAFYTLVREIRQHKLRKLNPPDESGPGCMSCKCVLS", "experiment": "Binding to HRAS by surface plasmon resonance (SPR), Single Cycle Kinetics", "conditions": "SPR, GDP-bound HRAS wild-type protein vs GDP-bound KRAS wild-type protein"}, "[3]": {"molecular_target": "GDP-bound KRAS wild-type protein (Homo sapiens, UniProt P01116)", "sequence (P01116 whole entry)": "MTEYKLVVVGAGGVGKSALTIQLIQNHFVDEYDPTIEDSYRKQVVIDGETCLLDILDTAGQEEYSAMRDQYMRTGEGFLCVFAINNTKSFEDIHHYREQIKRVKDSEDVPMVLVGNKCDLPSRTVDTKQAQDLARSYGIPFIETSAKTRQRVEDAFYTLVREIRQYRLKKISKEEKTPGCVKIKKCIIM", "experiment": "Binding to KRAS by surface plasmon resonance (SPR), Single Cycle Kinetics", "conditions": "SPR Single Cycle Kinetics, GDP-bound KRAS wild-type protein, 1:1 binding model; read-out: KRAS KD"}}, "note": "Where a SMILES comes first, the peptide text is derived from it. Bridges are numbered along the chain shown (N, C = ends). [ ]: non-standard residue; d: D form. The star is where a group is joined. hPhe(3-Cl-4-CF3) = N[C@@H](CCc1ccc(C(F)(F)F)c(Cl)c1)C(=O)O; NPrPhe(4-CF3) = CCCN[C@@H](Cc1ccc(C(F)(F)F)cc1)C(=O)O; Abu(4,4,4-F3) = N[C@@H](CC(F)(F)F)C(=O)O; Morpholine(3S-CO) = O=C(O)[C@@H]1COCCN1; Pip(4,4-F2) = O=C(O)[C@@H]1CC(F)(F)CCN1; NMeGly(cPent) = CN[C@H](C(=O)O)C1CCCC1; Gly(cPent) = N[C@H](C(=O)O)C1CCCC1; Gly(cBu) = N[C@H](C(=O)O)C1CCC1; NMeD = CN[C@@H](CC(=O)O)C(=O)O; NMeL = CN[C@@H](CC(C)C)C(=O)O; Pip = O=C(O)[C@@H]1CCCCN1; Morpholide = C1CN(*)CCO1; NMeA = CN[C@@H](C)C(=O)O; Ac5c = NC1(C(=O)O)CCCC1; Aze = O=C(O)[C@@H]1CCN1; NcPrGly = O=C(O)CNC1CC1; Abu = CC[C@H](N)C(=O)O; NPrGly = CCCNCC(=O)O; Sar = CNCC(=O)O"}
{"smiles": "CCCN1C(=O)CN(C)C(=O)CN(C)C(=O)[C@H]([C@@H](C)CC)NC(=O)[C@H](CC(C)C)N(C)C(=O)C[C@@H](C(=O)N2CCOCC2)N(C)C(=O)[C@H](C2CCCC2)N(C)C(=O)C2(CCCC2)NC(=O)[C@@H]2CCCCN2C(=O)[C@H](CCc2ccc(C(F)(F)F)c(Cl)c2)NC(=O)CN(C)C(=O)[C@@H]1Cc1ccc(C(F)(F)F)cc1", "note": "[PP0263] ([NMeL]I[Sar][Sar][NPrPhe(4-CF3)][Sar][hPhe(3-Cl-4-CF3)][Pip][Ac5c][NMeGly(cPent)][NMeD]-Morpholide; lactam N-11)", "values": [{"measurement": "NRAS/KRAS (ratio of KD value for NRAS to KD value for KRAS)", "setting": "[1]", "result": "B (a compound having 3 or more and less than 10 is denoted as B)"}, {"measurement": "HRAS/KRAS (ratio of KD value for HRAS to KD value for KRAS)", "setting": "[2]", "result": "C (A compound having a KD ratio of 0.1 or more and less than 3 is denoted as C)"}, {"measurement": "Kd", "setting": "[3]", "result": 0.47, "unit": "nM"}]}
{"smiles": "CCCN1C(=O)CN(C)C(=O)CN(C)C(=O)[C@H]([C@@H](C)CC)NC(=O)[C@H](CC(C)C)N(C)C(=O)C[C@@H](C(=O)N2CCOCC2)N(C)C(=O)[C@H](C2CCCC2)N(C)C(=O)C2(CCCC2)NC(=O)[C@@H]2CC(F)(F)CCN2C(=O)[C@H](CCc2ccc(C(F)(F)F)c(Cl)c2)NC(=O)CN(C)C(=O)[C@@H]1Cc1ccc(C(F)(F)F)cc1", "note": "[PP0264] ([NMeL]I[Sar][Sar][NPrPhe(4-CF3)][Sar][hPhe(3-Cl-4-CF3)][Pip(4,4-F2)][Ac5c][NMeGly(cPent)][NMeD]-Morpholide; lactam N-11)", "values": [{"measurement": "NRAS/KRAS (ratio of KD value for NRAS to KD value for KRAS)", "setting": "[1]", "result": "B (a compound having 3 or more and less than 10 is denoted as B)"}, {"measurement": "HRAS/KRAS (ratio of KD value for HRAS to KD value for KRAS)", "setting": "[2]", "result": "C (A compound having a KD ratio of 0.1 or more and less than 3 is denoted as C)"}, {"measurement": "Kd", "setting": "[3]", "result": 0.42, "unit": "nM"}]}
{"smiles": "CCCN1C(=O)CN(C)C(=O)CN(C)C(=O)[C@H]([C@@H](C)CC)NC(=O)[C@H](CC(C)C)N(C)C(=O)C[C@@H](C(=O)N2CCOCC2)N(C)C(=O)[C@H](C2CCCC2)N(C)C(=O)C2(CCCC2)NC(=O)[C@@H]2COCCN2C(=O)[C@H](CCc2ccc(C(F)(F)F)c(Cl)c2)NC(=O)CN(C)C(=O)[C@@H]1Cc1ccc(C(F)(F)F)cc1", "note": "[PP0265] ([NMeL]I[Sar][Sar][NPrPhe(4-CF3)][Sar][hPhe(3-Cl-4-CF3)][Morpholine(3S-CO)][Ac5c][NMeGly(cPent)][NMeD]-Morpholide; lactam N-11)", "values": [{"measurement": "NRAS/KRAS (ratio of KD value for NRAS to KD value for KRAS)", "setting": "[1]", "result": "B (a compound having 3 or more and less than 10 is denoted as B)"}, {"measurement": "HRAS/KRAS (ratio of KD value for HRAS to KD value for KRAS)", "setting": "[2]", "result": "C (A compound having a KD ratio of 0.1 or more and less than 3 is denoted as C)"}, {"measurement": "Kd", "setting": "[3]", "result": 0.28, "unit": "nM"}]}
{"smiles": "CCCN1CC(=O)NC2(CCCC2)C(=O)N(C)[C@@H](C2CCCC2)C(=O)N(C)[C@H](C(=O)N2CCOCC2)CC(=O)N(C)[C@@H](CC(C)C)C(=O)N[C@@H]([C@@H](C)CC)C(=O)N(C)CC(=O)N(C)CC(=O)N(CCC)[C@@H](Cc2ccc(C(F)(F)F)cc2)C(=O)N(C)CC(=O)N[C@@H](CCc2ccc(C(F)(F)F)c(Cl)c2)C1=O", "note": "[PP0267] ([NMeL]I[Sar][Sar][NPrPhe(4-CF3)][Sar][hPhe(3-Cl-4-CF3)][NPrGly][Ac5c][NMeGly(cPent)][NMeD]-Morpholide; lactam N-11)", "values": [{"measurement": "NRAS/KRAS (ratio of KD value for NRAS to KD value for KRAS)", "setting": "[1]", "result": "B (a compound having 3 or more and less than 10 is denoted as B)"}, {"measurement": "HRAS/KRAS (ratio of KD value for HRAS to KD value for KRAS)", "setting": "[2]", "result": "B (a compound having 3 or more and less than 10 is denoted as B)"}, {"measurement": "Kd", "setting": "[3]", "result": 0.87, "unit": "nM"}]}
{"smiles": "CCCN1C(=O)[C@@H]2CCN2C(=O)[C@H](C)N(C)C(=O)[C@H](CC)NC(=O)[C@H](CC(C)C)N(C)C(=O)C[C@@H](C(=O)N2CCOCC2)N(C)C(=O)[C@H](C2CCCC2)N(C)C(=O)C2(CCCC2)NC(=O)[C@@H]2CCCN2C(=O)[C@H](CCc2ccc(C(F)(F)F)c(Cl)c2)NC(=O)CN(C)C(=O)[C@@H]1Cc1ccc(C(F)(F)F)cc1", "note": "[PP0269] ([NMeL][Abu][NMeA][Aze][NPrPhe(4-CF3)][Sar][hPhe(3-Cl-4-CF3)]P[Ac5c][NMeGly(cPent)][NMeD]-Morpholide; lactam N-11)", "values": [{"measurement": "NRAS/KRAS (ratio of KD value for NRAS to KD value for KRAS)", "setting": "[1]", "result": "C (A compound having a KD ratio of 0.1 or more and less than 3 is denoted as C)"}, {"measurement": "HRAS/KRAS (ratio of KD value for HRAS to KD value for KRAS)", "setting": "[2]", "result": "B (a compound having 3 or more and less than 10 is denoted as B)"}, {"measurement": "Kd", "setting": "[3]", "result": 1.4, "unit": "nM"}]}
{"smiles": "CCCN1C(=O)[C@@H]2CCN2C(=O)[C@H](C)N(C)C(=O)[C@H](CC(F)(F)F)NC(=O)[C@H](CC(C)C)N(C)C(=O)C[C@@H](C(=O)N2CCOCC2)N(C)C(=O)[C@H](C2CCCC2)N(C)C(=O)C2(CCCC2)NC(=O)[C@@H]2CCCN2C(=O)[C@H](CCc2ccc(C(F)(F)F)c(Cl)c2)NC(=O)CN(C)C(=O)[C@@H]1Cc1ccc(C(F)(F)F)cc1", "note": "[PP0270] ([NMeL][Abu(4,4,4-F3)][NMeA][Aze][NPrPhe(4-CF3)][Sar][hPhe(3-Cl-4-CF3)]P[Ac5c][NMeGly(cPent)][NMeD]-Morpholide; lactam N-11)", "values": [{"measurement": "NRAS/KRAS (ratio of KD value for NRAS to KD value for KRAS)", "setting": "[1]", "result": "C (A compound having a KD ratio of 0.1 or more and less than 3 is denoted as C)"}, {"measurement": "HRAS/KRAS (ratio of KD value for HRAS to KD value for KRAS)", "setting": "[2]", "result": "B (a compound having 3 or more and less than 10 is denoted as B)"}, {"measurement": "Kd", "setting": "[3]", "result": 0.76, "unit": "nM"}]}
{"smiles": "CCCN1C(=O)[C@@H]2CCN2C(=O)[C@H](C)N(C)C(=O)[C@H](C2CCC2)NC(=O)[C@H](CC(C)C)N(C)C(=O)C[C@@H](C(=O)N2CCOCC2)N(C)C(=O)[C@H](C2CCCC2)N(C)C(=O)C2(CCCC2)NC(=O)[C@@H]2CCCN2C(=O)[C@H](CCc2ccc(C(F)(F)F)c(Cl)c2)NC(=O)CN(C)C(=O)[C@@H]1Cc1ccc(C(F)(F)F)cc1", "note": "[PP0271] ([NMeL][Gly(cBu)][NMeA][Aze][NPrPhe(4-CF3)][Sar][hPhe(3-Cl-4-CF3)]P[Ac5c][NMeGly(cPent)][NMeD]-Morpholide; lactam N-11)", "values": [{"measurement": "NRAS/KRAS (ratio of KD value for NRAS to KD value for KRAS)", "setting": "[1]", "result": "C (A compound having a KD ratio of 0.1 or more and less than 3 is denoted as C)"}, {"measurement": "HRAS/KRAS (ratio of KD value for HRAS to KD value for KRAS)", "setting": "[2]", "result": "B (a compound having 3 or more and less than 10 is denoted as B)"}, {"measurement": "Kd", "setting": "[3]", "result": 0.22, "unit": "nM"}]}
{"smiles": "CCCN1C(=O)[C@@H]2CCN2C(=O)[C@H](C)N(C)C(=O)[C@H](C2CCCC2)NC(=O)[C@H](CC(C)C)N(C)C(=O)C[C@@H](C(=O)N2CCOCC2)N(C)C(=O)[C@H](C2CCCC2)N(C)C(=O)C2(CCCC2)NC(=O)[C@@H]2CCCN2C(=O)[C@H](CCc2ccc(C(F)(F)F)c(Cl)c2)NC(=O)CN(C)C(=O)[C@@H]1Cc1ccc(C(F)(F)F)cc1", "note": "[PP0272] ([NMeL][Gly(cPent)][NMeA][Aze][NPrPhe(4-CF3)][Sar][hPhe(3-Cl-4-CF3)]P[Ac5c][NMeGly(cPent)][NMeD]-Morpholide; lactam N-11)", "values": [{"measurement": "NRAS/KRAS (ratio of KD value for NRAS to KD value for KRAS)", "setting": "[1]", "result": "C (A compound having a KD ratio of 0.1 or more and less than 3 is denoted as C)"}, {"measurement": "HRAS/KRAS (ratio of KD value for HRAS to KD value for KRAS)", "setting": "[2]", "result": "B (a compound having 3 or more and less than 10 is denoted as B)"}, {"measurement": "Kd", "setting": "[3]", "result": 0.17, "unit": "nM"}]}
{"smiles": "CCCN1C(=O)[C@@H]2CCN2C(=O)CN(C2CC2)C(=O)[C@H]([C@@H](C)CC)NC(=O)[C@H](CC(C)C)N(C)C(=O)C[C@@H](C(=O)N2CCOCC2)N(C)C(=O)[C@H](C2CCCC2)N(C)C(=O)C2(CCCC2)NC(=O)[C@@H]2CCCN2C(=O)[C@H](CCc2ccc(C(F)(F)F)c(Cl)c2)NC(=O)CN(C)C(=O)[C@@H]1Cc1ccc(C(F)(F)F)cc1", "note": "[PP0273] ([NMeL]I[NcPrGly][Aze][NPrPhe(4-CF3)][Sar][hPhe(3-Cl-4-CF3)]P[Ac5c][NMeGly(cPent)][NMeD]-Morpholide; lactam N-11)", "values": [{"measurement": "NRAS/KRAS (ratio of KD value for NRAS to KD value for KRAS)", "setting": "[1]", "result": "C (A compound having a KD ratio of 0.1 or more and less than 3 is denoted as C)"}, {"measurement": "HRAS/KRAS (ratio of KD value for HRAS to KD value for KRAS)", "setting": "[2]", "result": "B (a compound having 3 or more and less than 10 is denoted as B)"}, {"measurement": "Kd", "setting": "[3]", "result": 0.56, "unit": "nM"}]}
